Key:
healthy volunteers = assay: Transcutaneous oximetry (tcpO2) pharmacodynamic study, single IV bolus, subjects breathing 100% O2; format: in vivo, human; conditions: for Number (%) of Subjects with a TcpO2 increase during Period 2: TSC-treated N = 24, all doses
Procedure: This is a randomized, double-blind, placebo-controlled, pharmacokinetic, pharmacodynamics study of Trans Sodium Crocetinate (TSC) utilizing Transcutaneous Oximetry Measurement (tcpO2) in healthy volunteers breathing 100% O2. Study assessments include tcpO2 levels, SpO2, and PK.
TcpO2 sensor electrodes are applied to the left or right lower extremity, per PI discretion. Sensor electrode temperature is preset to 45° C., to allow maximum vasodilation. Risk of sensor site superficial burn is minimal given the relatively brief testing period. Four (4) sensors are applied to the following locations: • Sensor 1: Mid-dorsum of the foot • Sensor 2: 10 cm distal to the lateral femoral epicondyle • Sensor 3: 5 cm proximal to the anterior aspect of the lateral malleolus • Sensor 4: 5 cm proximal from the center of the medial malleolus
After the tcpO2 sensors have been applied and tested, subjects are placed on O2 via a simple facemask at 6 L/minute, and remain on O2 for 70 minutes prior to study drug administration. The first 10 minutes allow for equilibration of O2 levels, and the subsequent 60 minutes serve as the baseline period. TcpO2 values and SpO2 are recorded every 5 minutes during the above periods. Baseline vital signs are measured within 10 minutes prior to study drug dosing.
At the end of the 70-minute equilibration/baseline period, subjects continue on O2 and receive a single IV bolus injection of TSC at a dose of 0.5, 1.0, 1.5, 2.0 or 2.5 mg/kg, or placebo. After study drug administration, subjects are evaluated for 60 minutes, with tcpO2 values and SpO2 recorded every 5 minutes. In addition to assessment of tcpO2 every 5 minutes, continuous tcpO2 measurements are provided by the TCOM machine in graphical format.
The primary analysis is based on the change over time in the tcpO2 measurements following a single administration of TSC in subjects breathing 100% O2. The time-matched changes from Period 1 (60 minute run-in on 100% O2) to Period 2 (60 minute post-drug administration on 100% O2) serve as the dependent variable in the repeated measures analysis. The 60 minute run-in on 100% O2 is intended to account for the intra-subject variability over time and the time-match differences represent the least biased estimate of the effect of the study drug.
The overall pooled median values across the four TcpO2 sensors are calculated using the median value from each sensor during the same interval. To compare the time-matched changes in TcpO2, a 2-factor (treatment and time) repeated measures (time) analysis of variance (ANOVA) model is used. Contrast statements within the model facilitate comparisons between individual dose arms and placebo over time. Intra-subject changes (Period 2 minus Period 1 in 5-minute intervals) serve as the dependent variable in the model. TcpO2 baseline measures during the 60-minute Period 1 are adjusted for intra-subject variability over time. Time-matched differences between values obtained during Period 1 and Period 2 represent the least biased estimate of the effect of the study drug versus placebo.
Therefore, a supplementary pharmacodynamic analysis on the intra-subject slopes from each period and sensor is performed. For Period 1, on an intra-subject basis, the median value from each of the 12 intervals is used to construct the slope using orthogonal spacing with respect to time. For Period 2, the slope is constructed using the median value from each of the 13 intervals—of note, Period 2 observations include 1- and 2-minute values—in addition to the 5-minute measurements for comparison to the 12 corresponding intervals of Period 1. An additional set of analyses are conducted using the Period 2 intra-subject slopes as the dependent variable. The active dose groups are pooled and the least square means are compared to placebo. This procedure is repeated iteratively, each time removing the next lowest dose group to determine the separation of each cohort's least square means relative to placebo.

[1] = Absorption after intramuscular injection of TSC with gamma cyclodextrin; format: in vivo; conditions: injected intramuscularly with gamma cyclodextrin; rats

SMILES: CC(/C=C/C=C(\C)C(=O)[O-])=C\C=C\C=C(C)\C=C\C=C(/C)C(=O)O.[Na+] [TSC, trans sodium crocetinate]
- Dose giving the greatest difference in TcpO2 from placebo (healthy volunteers; 1-hour treatment period (Period 2)): 2.5 mg/kg
- Peripheral oxygenation levels over time (healthy volunteers; Period 2, placebo shows time related decrease): stable or increasing peripheral oxygenation levels over time
- Number (%) of Subjects with a TcpO2 increase during Period 2 (healthy volunteers; Sensor 1 (mid-dorsum of the foot), placebo 1/5 (20.0%)): 16/24 (66.7%)
- Intra-subject TcpO2 slopes, Least Square Mean (healthy volunteers; Sensor 1, pooling TSC doses ≥1.0 mg/kg, placebo −0.1878, probability 0.0960): 0.3537
- Intra-subject TcpO2 slopes, Least Square Mean (healthy volunteers; Sensor 1, pooling TSC doses ≥1.5 mg/kg, placebo −0.1878, probability 0.1702): 0.3027
- Intra-subject TcpO2 slopes, Least Square Mean (healthy volunteers; Sensor 1, pooling TSC doses ≥2.0 mg/kg, placebo −0.1878, probability 0.1430): 0.4359
- Intra-subject TcpO2 slopes, Least Square Mean (healthy volunteers; Sensor 1, pooling all TSC doses, placebo −0.1878, probability 0.0876): 0.3185
- Number (%) of Subjects with a TcpO2 increase during Period 2 (healthy volunteers; Sensor 2, placebo 0/5): 4/24 (16.7%)
- Intra-subject TcpO2 slopes, Least Square Mean (healthy volunteers; Sensor 2, pooling TSC doses ≥1.0 mg/kg, placebo −0.3481, probability 0.1139): 0.0656
- Intra-subject TcpO2 slopes, Least Square Mean (healthy volunteers; Sensor 2, pooling TSC doses ≥1.5 mg/kg, placebo −0.3481, probability 0.1306): 0.0149
- Intra-subject TcpO2 slopes, Least Square Mean (healthy volunteers; Sensor 2, pooling TSC doses ≥2.0 mg/kg, placebo −0.3481, probability 0.0959): 0.0753
- Intra-subject TcpO2 slopes, Least Square Mean (healthy volunteers; Sensor 2, pooling all TSC doses, placebo −0.3481, probability 0.0796): 0.0849
- Number (%) of Subjects with a TcpO2 increase during Period 2 (healthy volunteers; Sensor 3, placebo 0/5): 3/24 (12.5%)
- Intra-subject TcpO2 slopes, Least Square Mean (healthy volunteers; Sensor 3, pooling TSC doses ≥1.0 mg/kg, placebo −0.6320, probability 0.0301): 0.0132
- Intra-subject TcpO2 slopes, Least Square Mean (healthy volunteers; Sensor 3, pooling TSC doses ≥1.5 mg/kg, placebo −0.6320, probability 0.0572): 0.0249
- Intra-subject TcpO2 slopes, Least Square Mean (healthy volunteers; Sensor 3, pooling TSC doses ≥2.0 mg/kg, placebo −0.6320, probability 0.0421): 0.0846
- Intra-subject TcpO2 slopes, Least Square Mean (healthy volunteers; Sensor 3, pooling all TSC doses, placebo −0.6320, probability 0.0186): 0.0151
- Number (%) of Subjects with a TcpO2 increase during Period 2 (healthy volunteers; Sensor 4, placebo 0/5): 6/24 (25.0%)
- Intra-subject TcpO2 slopes, Least Square Mean (healthy volunteers; Sensor 4, pooling TSC doses ≥1.0 mg/kg, placebo −0.6389, probability 0.0213): 0.0260
- Intra-subject TcpO2 slopes, Least Square Mean (healthy volunteers; Sensor 4, pooling TSC doses ≥1.5 mg/kg, placebo −0.6389, probability 0.0436): −0.0909
- Intra-subject TcpO2 slopes, Least Square Mean (healthy volunteers; Sensor 4, pooling TSC doses ≥2.0 mg/kg, placebo −0.6389, probability 0.0187): 0.0297
- Intra-subject TcpO2 slopes, Least Square Mean (healthy volunteers; Sensor 4, pooling all TSC doses, placebo −0.6389, probability 0.0230): −0.0198
- Increase in TcpO2 levels relative to placebo (healthy volunteers; all TSC dose groups, supplemental analysis, Period 2): greater increase in TcpO2 levels than the placebo group
- TCOM readings after TSC administration compared to placebo (healthy volunteers; persists up to 60 minutes, most pronounced at 2.0 and 2.5 mg/kg iv): positive trend
- Absorption into the blood stream [1]: Absorption is quick

— US20240316000A1, “METHODS OF TREATMENT” (DIFFUSION PHARMACEUTICALS LLC, priority 2021, published 2024)
